Among the data in patent US9845322B2 (Hoffmann-La Roche Inc., priority 2016, dated 2017) are IC50 values, retold here.

One assay concerns HBsAg secretion in HepG2.2.15 cells. The assay can be described thus: HBsAg assay (chemiluminescence immunoassay of secreted HBsAg in culture supernatant). To be noted: HepG2.2.15 cells; concentration at which HBsAg secretion was reduced by 50% compared to the no drug control; read-out: IC50 (HBsAg assay). It counts as cell-based, HBV. Here is the method:
HepG2.2.15 cells (Acs et al. Proc Natl Acad Sci USA, 84, (1987), 4641-4), a constitutively HBV-expressing cell line were cultured in DMEM+Glutamax-I medium (Invitrogen, Carlsbad, Calif., USA), supplemented with 10% fetal bovine serum (Invitrogen) and G418 (Invitrogen) at a final concentration of 200 mg/L and maintained in 5% CO2 at 37° C.
HepG2.2.15 cells were seeded in duplicate into white, 96-well plates at 1.5×10^4 cells/well. The cells were treated with a three-fold serial dilution series of the compounds in DMSO. The final DMSO concentration in all wells was 1% and DMSO was used as no drug control.
The HBsAg chemiluminescence immunoassay (CLIA) kit (Autobio Diagnostics Co., Zhengzhou, China, Catalog number: CL0310-2) was used to measure the levels of secreted HBV antigens semi-quantitatively. For the detection 50 μL/well culture supernatant was used and HBsAg was quantified using HBsAg chemiluminescence immunoassay (CLIA) kit (Autobio Diagnostics Co., Zhengzhou, China, Catalog number: CL0310-2), 50 μL of the supernatant was transferred to the CLIA assay plate and 50 μL of enzyme conjugate reagent was added into each well. The plates were sealed and gently agitated for 1 hour at room temperature. The supernatant-enzyme-mixture was discarded and wells were washed 6 times with 300 μL of PBS. The residual liquid was removed by plating the CLIA plate […] on absorbent tissue paper. 25 μL of substrates A and B were added to each well. Luminance was measured using a luminometer (Mithras LB 940 Multimode Microplate Reader) after 10 minutes incubation. Dose-response curves were generated and the IC50 value was extrapolated by using the E-WorkBook Suite (ID Business Solutions Ltd., Guildford, UK). The IC50 was defined as the compound concentration (or conditioned media log dilution) at which HBsAg secretion was reduced by 50% compared to the no drug control.
The compounds according to formula I were tested for their capacity to inhibit HBsAg as described herein.
Consider `COCCOc1cc(N2CCc3nc(-c4ccccn4)ncc3C2C)cc(F)c1F` (centres unmarked) [Example 19, 6-[3,4-difluoro-5-(2-methoxyethoxy)phenyl]-5-methyl-2-(2-pyridyl)-7,8-dihydro-5H-pyrido[4,3-d]pyrimidine], for which the IC50 came to 42 nM.
With `CC1c2cnc(-c3ncccn3)nc2CCN1c1cc(O)c(F)c(F)c1` (centres unmarked) [Example 44, 2,3-difluoro-5-(5-methyl-2-pyrimidin-2-yl-7,8-dihydro-5H-pyrido[4,3-d]pyrimidin-6-yl)phenol], the IC50 worked out at 494 nM.
Still for that read-out and setting: in the case of `COc1cc(N2CCc3nc(-c4ccccn4)ncc3C2C)cc(F)c1F` (centres unmarked) [Example 5, 6-(3,4-difluoro-5-methoxy-phenyl)-5-methyl-2-(2-pyridyl)-7,8-dihydro-5H-pyrido[4,3-d]pyrimidine] it was 38 nM.
For the molecule `CC1c2cnc(-c3ncccn3)nc2CCN1c1cc(F)c(F)c(OCC(N)=O)c1` (single isomer, unassigned; (+)) [Example 67, (+)-2-[2,3-difluoro-5-[5-methyl-2-pyrimidin-2-yl-7,8-dihydro-5H-pyrido[4,3-d]pyrimidin-6-yl]phenoxy]acetamide], the concentration for half-maximal inhibition (IC50) was found to be 32300 nM.
Still for that read-out and setting: next, `CC1c2cnc(-c3ncccn3)nc2CCN1c1cc(O)c(F)c(F)c1` (single isomer, unassigned; (-)) [Example 45, (−)-2,3-difluoro-5-(5-methyl-2-pyrimidin-2-yl-7,8-dihydro-5H-pyrido[4,3-d]pyrimidin-6-yl)phenol]: 176 nM; `CC1c2cnc(-c3ncccn3)nc2CCN1c1cc(N2CCCC2)cc(F)n1` (centres unmarked) [Example 198, 6-(6-fluoro-4-pyrrolidin-1-yl-2-pyridyl)-5-methyl-2-pyrimidin-2-yl-7,8-dihydro-5H-pyrido[4,3-d]pyrimidine]: 4 nM.

The assay is the same for the next values; noted with them: Hepatitis B virus, HepG2.2.15, HepG2.2.15 cells; concentration at which HBsAg secretion was reduced by 50% compared to the no drug control; read-out: IC50 (HBsAg assay).
As to `COC(=O)C(C(=O)OC)C1c2cnc(-c3ccccn3)nc2CCN1c1ccc(S(C)(=O)=O)cc1` (centres unmarked) [Example 8], the half-inhibitory concentration (IC50) was determined as 19600 nM.
On the same count and under the same terms, next, `Cc1cc(F)cc(N2CCc3nc(-c4ncccn4)ncc3C2C)c1` (centres unmarked) [Example 134, 6-(3-fluoro-5-methyl-phenyl)-5-methyl-2-pyrimidin-2-yl-7,8-dihydro-5H-pyrido[4,3-d]pyrimidine]: 48 nM; `CC1c2cnc(-c3ncccn3)nc2CCN1c1cc(F)c(F)c(OCCC(N)C(=O)O)c1` (centres unmarked) [Example 104, 2-amino-4-[2,3-difluoro-5-(5-methyl-2-pyrimidin-2-yl-7,8-dihydro-5H-pyrido[4,3-d]pyrimidin-6-yl)phenoxy]butanoic acid]: 19000 nM.
In the case of `CC1c2cnc(-c3ccccn3)nc2CCN1c1ccc(S(C)(=O)=O)cc1` (centres unmarked) [Example 23, 5-methyl-6-(4-methylsulfonylphenyl)-2-(2-pyridyl)-7,8-dihydro-5H-pyrido[4,3-d]pyrimidine], the IC50 was found to be 1490 nM.
For the molecule `CC1c2cnc(-c3ncccn3)nc2CCN1c1cc(F)cc(OC(F)(F)F)c1` (centres unmarked) [Example 133, 6-[3-fluoro-5-(trifluoromethoxy)phenyl]-5-methyl-2-pyrimidin-2-yl-7,8-dihydro-5H-pyrido[4,3-d]pyrimidine], the IC50 was determined as 1760 nM.
Turning to `CC1c2cnc(-c3ncccn3)nc2CCN1c1cc(OCCCCCC(=O)O)cc(F)n1` (single isomer, unassigned; (-)) [Example 164, (−)-6-[[2-fluoro-6-[5-methyl-2-pyrimidin-2-yl-7,8-dihydro-5H-pyrido[4,3-d]pyrimidin-6-yl]-4-pyridyl]oxy]hexanoic acid], the IC50 amounted to 22 nM.
On to `CC1c2cnc(-c3ccccn3)nc2CCN1c1cc(F)cc(N2CCCCC2)n1` (centres unmarked) [Example 219, 6-[4-fluoro-6-(1-piperidyl)-2-pyridyl]-5-methyl-2-(2-pyridyl)-7,8-dihydro-5H-pyrido[4,3-d]pyrimidine], for which the half-maximal inhibitory concentration (IC50) amounted to 110 nM.
Regarding `CC1c2cnc(-c3ncccn3)nc2CCN1c1cc(F)c(F)c(OCC2CCOCC2)c1` (centres unmarked) [Example 89, 6-[3,4-difluoro-5-(tetrahydropyran-4-ylmethoxy)phenyl]-5-methyl-2-pyrimidin-2-yl-7,8-dihydro-5H-pyrido[4,3-d]pyrimidine], the IC50 came to 21 nM.
Still for that read-out and setting: in the case of `CC1c2cnc(-c3ncccn3)nc2CCN1c1cc(F)c(F)c(OCCCNC(=O)OC(C)(C)C)c1` (centres unmarked) [Example 90, tert-butyl N-[3-[2,3-difluoro-5-(5-methyl-2-pyrimidin-2-yl-7,8-dihydro-5H-pyrido[4,3-d]pyrimidin-6-yl)phenoxy]propyl]carbamate] it was 22 nM; in that of `CC1c2cnc(-c3ncccn3)nc2CCN1c1cc(F)cc(OCC(F)F)c1` (centres unmarked) [Example 143, 6-[3-(2,2-difluoroethoxy)-5-fluoro-phenyl]-5-methyl-2-pyrimidin-2-yl-7,8-dihydro-5H-pyrido[4,3-d]pyrimidine], 22 nM; in that of `COC(=O)CCCCOc1cc(N2CCc3nc(-c4ncccn4)ncc3C2C)cc(F)c1F` (centres unmarked) [Example 62, methyl 5-[2,3-difluoro-5-(5-methyl-2-pyrimidin-2-yl-7,8-dihydro-5H-pyrido[4,3-d]pyrimidin-6-yl)phenoxy]pentanoate], 494 nM.
On to `CC1c2cnc(-c3ncccn3)nc2CCN1c1cc(F)cc(NS(C)(=O)=O)n1` (centres unmarked) [Example 212, N-[4-fluoro-6-(5-methyl-2-pyrimidin-2-yl-7,8-dihydro-5H-pyrido[4,3-d]pyrimidin-6-yl)-2-pyridyl]methanesulfonamide], for which the half-maximal inhibitory concentration (IC50) was found to be 837 nM.
On the same count and under the same terms, in the case of `CC1c2cnc(-c3ncccn3)nc2CCN1c1cc(F)c(F)c(OCCCN2CCNC2=O)c1` (centres unmarked) [Example 113, 1-[3-[2,3-difluoro-5-(5-methyl-2-pyrimidin-2-yl-7,8-dihydro-5H-pyrido[4,3-d]pyrimidin-6-yl)phenoxy]propyl]imidazolidin-2-one] it was 94 nM; in that of `CNC(=O)CCCOc1cc(N2CCc3nc(-c4ncccn4)ncc3C2C)cc(F)c1F` (centres unmarked) [Example 53, 4-[2,3-difluoro-5-(5-methyl-2-pyrimidin-2-yl-7,8-dihydro-5H-pyrido[4,3-d]pyrimidin-6-yl)phenoxy]-N-methyl-butanamide], 103 nM.
For the molecule `CCOC(=O)CCCCCCOc1cc(N2CCc3nc(-c4ncccn4)ncc3C2C)cc(F)c1F` (centres unmarked) [Example 85, ethyl 7-[2,3-difluoro-5-(5-methyl-2-pyrimidin-2-yl-7,8-dihydro-5H-pyrido[4,3-d]pyrimidin-6-yl)phenoxy]heptanoate], the IC50 stood at 156 nM.
As to `CC1c2cnc(-c3ccccn3)nc2CCN1c1cc(OCCCCCCC(=O)O)cc(F)n1` (centres unmarked) [Example 179, 7-[[2-fluoro-6-[5-methyl-2-(2-pyridyl)-7,8-dihydro-5H-pyrido[4,3-d]pyrimidin-6-yl]-4-pyridyl]oxy]heptanoic acid], the IC50 was found to be 29 nM.
Still for that read-out and setting: next, `CCOC(=O)CC1c2cnc(-c3ccccn3)nc2CCN1c1cc(F)c(F)c(OC)c1` (centres unmarked) [Example 36, ethyl 2-[6-(3,4-difluoro-5-methoxy-phenyl)-2-(2-pyridyl)-7,8-dihydro-5H-pyrido[4,3-d]pyrimidin-5-yl]acetate]: 39800 nM; `CC1c2cnc(-c3ncccn3)nc2CCN1c1cc(F)c(F)c(OCCCN2CCNCC2=O)c1` (centres unmarked) [Example 99, 1-[3-[2,3-difluoro-5-(5-methyl-2-pyrimidin-2-yl-7,8-dihydro-5H-pyrido[4,3-d]pyrimidin-6-yl)phenoxy]propyl]piperazin-2-one]: 1270 nM; `CC1c2cnc(-c3ncccn3)nc2CCN1c1cc(F)c(F)c(OCC(=O)NC2CCOC2)c1` (centres unmarked) [Example 83, 2-[2,3-difluoro-5-(5-methyl-2-pyrimidin-2-yl-7,8-dihydro-5H-pyrido[4,3-d]pyrimidin-6-yl)phenoxy]-N-tetrahydrofuran-3-yl-acetamide]: 190 nM.
The same measure, in the same setting: in the case of `COc1cc(F)c(Cl)c(N2CCc3nc(-c4ncccn4)ncc3C2C)c1` (single isomer, unassigned; (-)) [Example 130, (−)-6-(2-chloro-3-fluoro-5-methoxy-phenyl)-5-methyl-2-pyrimidin-2-yl-7,8-dihydro-5H-pyrido[4,3-d]pyrimidine] it was 679 nM.
As to `CC1c2cnc(-c3ncccn3)nc2CCN1c1cc(F)c(F)c(OCC2CCS(=O)(=O)C2)c1` (centres unmarked) [Example 100], the IC50 was 96 nM.
For `CC1c2cnc(-c3ccccn3)nc2CCN1c1cc(F)c(F)c(OCC(=O)O)c1` (centres unmarked) [Example 28, 2-[2,3-difluoro-5-[5-methyl-2-(2-pyridyl)-7,8-dihydro-5H-pyrido[4,3-d]pyrimidin-6-yl]phenoxy]acetic acid], the IC50 amounted to 3080 nM.
In the case of `CC1c2cnc(-c3ncccn3)nc2CCN1c1cc(OCC2CN(S(C)(=O)=O)C2)cc(F)n1` (centres unmarked) [Example 159, 6-[6-fluoro-4-[(1-methylsulfonylazetidin-3-yl)methoxy]-2-pyridyl]-5-methyl-2-pyrimidin-2-yl-7,8-dihydro-5H-pyrido[4,3-d]pyrimidine], the IC50 amounted to 56 nM.

Usually IC50 stands for the concentration that inhibits the measured activity by half.
